Assay results: patent publication US12581252B2, “Substituted pyrrolo[3,4-b]pyridines as PI3K-α inhibitors” (Relay Therapeutics, Inc., priority 2020, dated 2026)

Tests used:
H1047R PIK3CA enzyme = H1047R PIK3CA enzyme (Homo sapiens, UniProt P42336, H1047R); experiment: ADP-Glo Biochemical PIK3CA Kinase Assay
cells = settings: Homo sapiens, MCF-10A, read-out: MCF10A IC50

Chain of H1047R PIK3CA enzyme (P42336 whole entry H1047R): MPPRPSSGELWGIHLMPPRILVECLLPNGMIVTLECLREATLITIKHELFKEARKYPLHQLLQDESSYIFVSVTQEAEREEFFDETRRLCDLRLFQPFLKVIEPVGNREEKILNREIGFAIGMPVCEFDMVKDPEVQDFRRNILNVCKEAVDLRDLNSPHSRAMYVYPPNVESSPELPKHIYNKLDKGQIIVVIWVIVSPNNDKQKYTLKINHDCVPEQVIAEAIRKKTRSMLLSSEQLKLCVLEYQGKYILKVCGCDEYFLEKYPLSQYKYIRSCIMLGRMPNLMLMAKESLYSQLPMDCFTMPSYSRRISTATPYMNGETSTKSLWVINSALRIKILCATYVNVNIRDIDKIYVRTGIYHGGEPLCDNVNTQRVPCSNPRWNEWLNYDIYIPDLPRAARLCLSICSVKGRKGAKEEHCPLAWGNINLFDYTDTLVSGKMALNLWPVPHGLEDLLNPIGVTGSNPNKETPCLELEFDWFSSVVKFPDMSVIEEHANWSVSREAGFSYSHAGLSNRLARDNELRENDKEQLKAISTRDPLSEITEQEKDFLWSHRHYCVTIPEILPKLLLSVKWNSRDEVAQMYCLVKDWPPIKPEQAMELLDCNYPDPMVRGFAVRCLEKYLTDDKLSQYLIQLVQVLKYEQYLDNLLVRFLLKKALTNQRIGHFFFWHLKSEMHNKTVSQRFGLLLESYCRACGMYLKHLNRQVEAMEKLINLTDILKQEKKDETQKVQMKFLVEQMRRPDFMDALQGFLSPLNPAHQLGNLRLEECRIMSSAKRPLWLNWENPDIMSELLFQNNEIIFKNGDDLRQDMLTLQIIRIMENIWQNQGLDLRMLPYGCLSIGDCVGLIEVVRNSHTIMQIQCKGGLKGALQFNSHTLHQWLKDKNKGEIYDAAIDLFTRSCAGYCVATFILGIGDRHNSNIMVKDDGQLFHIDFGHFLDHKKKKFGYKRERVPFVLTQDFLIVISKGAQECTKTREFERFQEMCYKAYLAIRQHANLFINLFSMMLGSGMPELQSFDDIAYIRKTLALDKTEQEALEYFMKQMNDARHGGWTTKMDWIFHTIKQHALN
Chain of H1047R PIK3CA enzyme (P27986 whole entry partner): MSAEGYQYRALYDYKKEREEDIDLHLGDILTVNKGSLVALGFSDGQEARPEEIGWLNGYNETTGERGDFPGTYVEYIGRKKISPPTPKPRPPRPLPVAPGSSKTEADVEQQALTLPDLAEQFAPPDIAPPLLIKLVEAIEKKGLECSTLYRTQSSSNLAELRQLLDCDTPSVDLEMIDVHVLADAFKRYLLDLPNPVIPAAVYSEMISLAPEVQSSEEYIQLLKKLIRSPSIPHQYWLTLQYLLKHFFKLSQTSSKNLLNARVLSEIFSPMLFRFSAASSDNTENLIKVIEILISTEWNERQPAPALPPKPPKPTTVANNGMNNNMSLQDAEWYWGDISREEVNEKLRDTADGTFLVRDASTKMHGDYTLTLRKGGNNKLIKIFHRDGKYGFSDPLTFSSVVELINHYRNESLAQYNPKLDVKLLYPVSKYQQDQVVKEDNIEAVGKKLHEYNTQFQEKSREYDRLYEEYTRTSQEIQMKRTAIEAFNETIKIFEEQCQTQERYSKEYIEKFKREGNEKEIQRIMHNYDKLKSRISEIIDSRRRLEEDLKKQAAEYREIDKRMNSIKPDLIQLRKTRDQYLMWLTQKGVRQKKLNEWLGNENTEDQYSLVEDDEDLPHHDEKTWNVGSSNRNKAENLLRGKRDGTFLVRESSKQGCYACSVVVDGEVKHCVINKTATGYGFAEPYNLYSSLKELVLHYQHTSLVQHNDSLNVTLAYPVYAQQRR

| Structure (SMILES) | IC50 (H1047R PIK3CA enzyme) [nM] | IC50 (cells) [nM] |
| --- | --- | --- |
| O=C1NC(c2cc(F)ccc2Cl)c2c(NC(=O)N3CC(O)c4cc(F)ccc43)cc(-n3cncn3)cc21 (mixture of isomers) [Compound I-2414] | 100 to 500 | 10000 to 36000 |
| COc1c(F)cccc1-c1cc(NC(=O)c2cc(F)cc(C(F)(F)F)c2)c2c(c1)C(=O)NC2c1cc(F)ccc1Cl (stereo not drawn) [Compound I-1156] | ≤ 100 | < 1000 |
| CC(C)(O)Cn1cc(-c2cc(NC(=O)c3cc(F)cc(C(F)(F)F)c3)c3c(c2)C(=O)N[C@H]3c2cc(F)ccc2Cl)cn1 [Compound I-1097] | ≤ 100 | < 1000 |
| C[C@@H](C#N)Cn1cc(-c2cc(NC(=O)N3C[C@@H](O)c4cc(F)ccc43)c3c(c2)C(=O)N[C@H]3c2cc(F)ccc2Cl)cn1 (single isomer, unassigned) [Compound I-2503] | ≤ 100 | 5000 to 10000 |
| Cn1cnc(Nc2cc(NC(=O)c3cc(F)cc(C(F)(F)F)c3)c3c(c2)C(=O)NC3c2cc(F)ccc2Cl)n1 (stereo not drawn) [Compound I-976] | ≤ 100 | < 1000 |
| COc1ncccc1-c1cc(NC(=O)c2cc(F)cc(C(F)(F)F)c2)c2c(c1)C(=O)NC2c1cc(F)ccc1Cl (stereo not drawn) [Compound I-1091] | ≤ 100 | < 1000 |
| O=C1N[C@@H](c2cc(F)ccc2Cl)c2c(NC(=O)N3C[C@@](O)(C(F)(F)F)c4cc(F)ccc43)cccc21 (single isomer, unassigned) [Compound I-2518] | ≤ 100 | < 1000 |
| O=C1N[C@H](c2ccccc2Cl)c2c(NC(=O)N3C[C@@](O)(C(F)(F)F)c4cc(F)ccc43)cccc21 (single isomer, unassigned) [Compound I-2688] | ≤ 100 | < 1000 |
| Nc1cnc(-c2cc(NC(=O)c3cc(F)cc(C(F)(F)F)c3)c3c(c2)C(=O)NC3c2cc(F)ccc2Cl)cn1 (stereo not drawn) [Compound I-1102] | ≤ 100 | < 1000 |
| O=C(Nc1cccc2c1C(c1cc(F)ccc1Cl)NC2=O)c1csc2c1CCCC2 (stereo not drawn) [Compound I-2239] | ≤ 100 | 1000 to 5000 |
| O=C1NC(c2cc(F)ccc2Cl)c2c(NC(=O)c3nsc4ccccc34)cc(Br)cc21 (stereo not drawn) [Compound I-144] | ≤ 100 | 5000 to 10000 |
| O=C1NC(c2cc(F)ccc2Cl)c2c(NC(=O)N3CC(O)(C(F)(F)F)c4cc(F)ccc43)cc(Cl)cc21 (mixture of isomers) [Compound I-2482] | ≤ 100 | < 1000 |
